In PubChem BioAssay AID328 (DTP/NCI, 2004):
Toxic doses and inconclusive results are not listed. How the source made its calls: active means survival T/C of 150% or more; inactive means T/C below 125% in these data.

Test system: BDF1 mice, P388 leukemia ip, median survival T/C
Assay: NCI In Vivo Anticancer Drug Screen. Data for tumor model P388 Leukemia (intraperitoneal) in B6D2F1 (BDF1) mice
Conditions: endpoint: median survival time, schedule: Q01DX009 (ip), vehicle: Klucel (hydroxypropylcellulose) (HPC), higher = longer survival
Method in brief: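 Transplantable tumour in mice; compound vs vehicle dosing; survival scored; ratio of treated to control reported.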

Measured: T/C

COc1ccc2c(OC)c3ccoc3nc2c1OC
inactive: dose: 1.57 mg/kg/injection 89 % of control | dose: 3.13 mg/kg/injection 89 % of control | dose: 6.25 mg/kg/injection 101 % of control
